Assay results taken from patent US20240174662A1, “SMALL MOLECULE INHIBITORS OF SALT INDUCIBLE KINASES” (Janssen Biotech, Inc., priority 2021, published 2024).

target: SIK2 (Homo sapiens (Human), UniProt Q9H0K1); assay: SIK2 Enzymatic Assay Version 2 (High ATP); type: biochemical; details: 3 mM ATP and 200 μM HDAC5tide final, ADP-Glo Max luminescence
Method in brief: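 Luminescent ADP-Glo Max read-out: depletion reagent 2 h, then detection reagent 1 h. Before the reaction, compounds were incubated 30 min with enzyme added at 6 nM (twice final concentration), with all steps at room temperature.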

Sequence of SIK2 (Q9H0K1 whole entry, species assumed): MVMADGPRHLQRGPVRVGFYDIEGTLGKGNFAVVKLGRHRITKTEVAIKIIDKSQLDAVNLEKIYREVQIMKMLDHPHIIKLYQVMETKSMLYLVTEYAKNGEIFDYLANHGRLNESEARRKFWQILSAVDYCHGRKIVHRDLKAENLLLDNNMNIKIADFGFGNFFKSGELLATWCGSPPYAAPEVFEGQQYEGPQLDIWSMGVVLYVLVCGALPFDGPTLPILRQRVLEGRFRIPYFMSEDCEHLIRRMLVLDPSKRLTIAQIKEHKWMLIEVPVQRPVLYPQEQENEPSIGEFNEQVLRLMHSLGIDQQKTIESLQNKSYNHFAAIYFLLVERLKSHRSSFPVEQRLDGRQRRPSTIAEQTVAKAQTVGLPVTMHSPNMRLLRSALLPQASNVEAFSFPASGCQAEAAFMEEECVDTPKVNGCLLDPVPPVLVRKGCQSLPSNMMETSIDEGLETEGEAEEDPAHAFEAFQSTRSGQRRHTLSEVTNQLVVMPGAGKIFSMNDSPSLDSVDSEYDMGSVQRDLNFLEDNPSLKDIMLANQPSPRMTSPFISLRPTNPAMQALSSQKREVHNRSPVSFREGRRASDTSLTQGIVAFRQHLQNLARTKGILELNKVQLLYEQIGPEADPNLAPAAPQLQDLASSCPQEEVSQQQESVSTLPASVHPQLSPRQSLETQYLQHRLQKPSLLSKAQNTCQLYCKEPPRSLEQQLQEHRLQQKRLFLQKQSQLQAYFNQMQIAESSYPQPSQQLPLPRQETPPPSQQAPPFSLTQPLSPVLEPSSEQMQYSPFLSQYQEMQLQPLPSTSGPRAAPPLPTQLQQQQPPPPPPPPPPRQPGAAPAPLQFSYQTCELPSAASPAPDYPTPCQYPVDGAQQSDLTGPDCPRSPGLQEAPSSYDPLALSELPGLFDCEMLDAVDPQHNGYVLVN

SMILES | IC50
CNC(=O)c1cc(Nc2cc3cc(-c4c(OC[C@H]5CCN5C)cnn4C)ccn3n2)nc(C)n1 [Example 120, N,2-dimethyl-6-[[5-[2-methyl-4-[[(2R)-1-methylazetidin-2-yl]methoxy]pyrazol-3-yl]pyrazolo[1,5-a]pyridin-2-yl]amino]pyrimidine-4-carboxamide] | 23.7 nM
COc1nnc(Nc2cc3cc(-c4c(OC[C@H]5CCN5C)cnn4C)ccn3n2)cc1C [Example 121, N-(6-methoxy-5-methyl-pyridazin-3-yl)-5-[2-methyl-4-[[(2R)-1-methylazetidin-2-yl]methoxy]pyrazol-3-yl]pyrazolo[1,5-a]pyridin-2-amine] | 1 nM
Cc1nc(Nc2cc3cc(-c4c(OC[C@H]5CCN5C)cnn4C)ccn3n2)cc(C(F)(F)F)n1 [Example 122, 5-[2-methyl-4-[[(2R)-1-methylazetidin-2-yl]methoxy]pyrazol-3-yl]-N-[2-methyl-6-(trifluoromethyl)pyrimidin-4-yl]pyrazolo[1,5-a]pyridin-2-amine] | 3.6 nM
CN1CC[C@@H]1COc1cnn(C)c1-c1ccn2nc(Nc3cc(C(F)(F)F)ncn3)cc2c1 [Example 123, 5-[2-methyl-4-[[(2R)-1-methylazetidin-2-yl]methoxy]pyrazol-3-yl]-N-[6-(trifluoromethyl)pyrimidin-4-yl]pyrazolo[1,5-a]pyridin-2-amine] | 8.4 nM
CN1CC[C@@H]1COc1cnn(C)c1-c1ccn2nc(Nc3cn(C)nn3)cc2c1 [Example 124, 5-[2-methyl-4-[[(2R)-1-methylazetidin-2-yl]methoxy]pyrazol-3-yl]-N-(1-methyltriazol-4-yl)pyrazolo[1,5-a]pyridin-2-amine] | 14.9 nM
CN1CC[C@@H]1COc1cnn(C)c1-c1ccn2nc(Nc3ccc4cnccc4n3)cc2c1 [Example 125, N-[5-[2-methyl-4-[[(2R)-1-methylazetidin-2-yl]methoxy]pyrazol-3-yl]pyrazolo[1,5-a]pyridin-2-yl]-1,6-naphthyridin-2-amine] | 1.3 nM
CNC(=O)c1ccc(Nc2cc3cc(-c4c(OC[C@H]5CCN5C)cnn4C)ccn3n2)nc1 [Example 126, N-methyl-6-[[5-[2-methyl-4-[[(2R)-1-methylazetidin-2-yl]methoxy]pyrazol-3-yl]pyrazolo[1,5-a]pyridin-2-yl]amino]pyridine-3-carboxamide] | 4.1 nM
COc1cc(Nc2cc3cc(-c4c(OC[C@H]5CCN5C)cnn4C)ccn3n2)ncn1 [Example 127, N-(6-methoxypyrimidin-4-yl)-5-[2-methyl-4-[[(2R)-1-methylazetidin-2-yl]methoxy]pyrazol-3-yl]pyrazolo[1,5-a]pyridin-2-amine] | 11 nM
CN1CC[C@@H]1COc1cnn(C)c1-c1ccn2nc(Nc3ccnc(NC4CC4)n3)cc2c1 [Example 128, N2-cyclopropyl-N4-[5-[2-methyl-4-[[(2R)-1-methylazetidin-2-yl]methoxy]pyrazol-3-yl]pyrazolo[1,5-a]pyridin-2-yl]pyrimidine-2,4-diamine] | < 0.847 nM
Cc1cc(Nc2cc3cc(-c4c(OC[C@H]5CCN5C)cnn4C)ccn3n2)nc(NC2CCCC2)n1 [Example 129, N2-cyclopentyl-6-methyl-N4-[5-[2-methyl-4-[[(2R)-1-methylazetidin-2-yl]methoxy]pyrazol-3-yl]pyrazolo[1,5-a]pyridin-2-yl]pyrimidine-2,4-diamine] | < 0.847 nM
CCn1ncc(OC[C@H]2CCN2C)c1-c1ccn2nc(Nc3cc(C)nc(C)n3)cc2c1 [Example 130, N-(2,6-dimethylpyrimidin-4-yl)-5-[2-ethyl-4-[[(2R)-1-methylazetidin-2-yl]methoxy]pyrazol-3-yl]pyrazolo[1,5-a]pyridin-2-amine] | < 0.847 nM
[2H]C([2H])([2H])n1ncc(OC[C@H]2CCN2C)c1-c1ccn2nc(Nc3cc(C)nc(C)n3)cc2c1 [Example 131, N-(2,6-dimethylpyrimidin-4-yl)-5-[4-[[(2R)-1-methylazetidin-2-yl]methoxy]-2-(trideuteriomethyl)pyrazol-3-yl]pyrazolo[1,5-a]pyridin-2-amine] | < 0.847 nM
CN1CC[C@@H]1COc1cnn(C)c1-c1ccn2nc(Nc3cnc(C(=O)NCC(C)(C)O)cn3)cc2c1 [Example 132, N-(2-hydroxy-2-methyl-propyl)-5-[[5-[2-methyl-4-[[(2R)-1-methylazetidin-2-yl]methoxy]pyrazol-3-yl]pyrazolo[1,5-a]pyridin-2-yl]amino]pyrazine-2-carboxamide] | 8.9 nM
CNC(=O)c1cnc(Nc2cc3cc(-c4c(OC[C@H]5CCN5C)cnn4C)ccn3n2)cn1 [Example 133, N-methyl-5-[[5-[2-methyl-4-[[(2R)-1-methylazetidin-2-yl]methoxy]pyrazol-3-yl]pyrazolo[1,5-a]pyridin-2-yl]amino]pyrazine-2-carboxamide] | 7.1 nM
Cc1cc(Nc2cc3cc(-c4c(OC[C@@H]5CCN5C)cnn4C)ccn3n2)nc(C2CC2)n1 [Example 134, N-(2-cyclopropyl-6-methyl-pyrimidin-4-yl)-5-[2-methyl-4-[[(2S)-1-methylazetidin-2-yl]methoxy]pyrazol-3-yl]pyrazolo[1,5-a]pyridin-2-amine] | 2.8 nM
CN1CC[C@@H]1COc1cnn(C)c1-c1ccn2nc(Nc3ccc(C(=O)NCCC#N)cn3)cc2c1 [Example 135, N-(2-cyanoethyl)-6-[[5-[2-methyl-4-[[(2R)-1-methylazetidin-2-yl]methoxy]pyrazol-3-yl]pyrazolo[1,5-a]pyridin-2-yl]amino]pyridine-3-carboxamide] | 5.8 nM
Cc1cc(Nc2cc3cc(-c4c(OC[C@H]5CCN5C)cnn4C)ccn3n2)nc2c1CCC2 [Example 136, N-(4-methyl-6,7-dihydro-5H-cyclopenta[b]pyridin-2-yl)-5-[2-methyl-4-[[(2R)-1-methylazetidin-2-yl]methoxy]pyrazol-3-yl]pyrazolo[1,5-a]pyridin-2-amine] | 2.3 nM
CCc1cc(Nc2cc3cc(-c4c(OC[C@@H]5CCN5C)cnn4C)ccn3n2)nc(C)n1 [Example 137, N-(6-ethyl-2-methyl-pyrimidin-4-yl)-5-[2-methyl-4-[[(2S)-1-methylazetidin-2-yl]methoxy]pyrazol-3-yl]pyrazolo[1,5-a]pyridin-2-amine] | 16.9 nM
Cc1ncc(Nc2cc3cc(-c4c(OC[C@@H]5CCN5C)cnn4C)ccn3n2)nc1C [Example 138, N-(5,6-dimethylpyrazin-2-yl)-5-[2-methyl-4-[[(2S)-1-methylazetidin-2-yl]methoxy]pyrazol-3-yl]pyrazolo[1,5-a]pyridin-2-amine] | 40.3 nM
Cc1cc(Nc2cc3cc(-c4c(OC[C@@H]5CCN5C)cnn4C)ccn3n2)nc(C)n1 [Example 139, N-(2,6-dimethylpyrimidin-4-yl)-5-[2-methyl-4-[[(2S)-1-methylazetidin-2-yl]methoxy]pyrazol-3-yl]pyrazolo[1,5-a]pyridin-2-amine] | 19.7 nM
Cc1cc(Nc2cc3cc(-c4c(OC[C@H]5CCN5C)cnn4C(F)F)ccn3n2)nc(C)n1 [Example 140, 5-[2-(difluoromethyl)-4-[[(2R)-1-methylazetidin-2-yl]methoxy]pyrazol-3-yl]-N-(2,6-dimethylpyrimidin-4-yl)pyrazolo[1,5-a]pyridin-2-amine] | 1.2 nM
Cc1cnnc(Nc2cc3cc(-c4c(OC[C@H]5CCN5C)cnn4C)ccn3n2)c1 [Example 141, 5-[2-methyl-4-[[(2R)-1-methylazetidin-2-yl]methoxy]pyrazol-3-yl]-N-(5-methylpyridazin-3-yl)pyrazolo[1,5-a]pyridin-2-amine] | 1 nM
CN1CC[C@@H]1COc1cnn(C)c1-c1ccn2nc(Nc3cnn(C)c3)cc2c1 [Example 142, 5-[2-methyl-4-[[(2R)-1-methylazetidin-2-yl]methoxy]pyrazol-3-yl]-N-(1-methylpyrazol-4-yl)pyrazolo[1,5-a]pyridin-2-amine] | 2.8 nM
CN1CC[C@@H]1COc1cnn(C)c1-c1ccn2nc(Nc3ccc(=O)n(C)n3)cc2c1 [Example 143, 2-methyl-6-[[5-[2-methyl-4-[[(2R)-1-methylazetidin-2-yl]methoxy]pyrazol-3-yl]pyrazolo[1,5-a]pyridin-2-yl]amino]pyridazin-3-one] | 2.4 nM
Cc1cc(Nc2cc3cc(-c4c(OC[C@H]5CCN5C)cnn4C)ccn3n2)nc(C2CC2)n1 [Example 144, N-(2-cyclopropyl-6-methyl-pyrimidin-4-yl)-5-[2-methyl-4-[[(2R)-1-methylazetidin-2-yl]methoxy]pyrazol-3-yl]pyrazolo[1,5-a]pyridin-2-amine] | < 0.847 nM
CCc1cc(Nc2cc3cc(-c4c(OC[C@H]5CCN5C)cnn4C)ccn3n2)nc(C)n1 [Example 145, N-(6-ethyl-2-methyl-pyrimidin-4-yl)-5-[2-methyl-4-[[(2R)-1-methylazetidin-2-yl]methoxy]pyrazol-3-yl]pyrazolo[1,5-a]pyridin-2-amine] | < 0.847 nM
COc1nc(C)cc(Nc2cc3cc(-c4c(OC[C@H]5CCN5C)cnn4C)ccn3n2)n1 [Example 146, N-(2-methoxy-6-methyl-pyrimidin-4-yl)-5-[2-methyl-4-[[(2R)-1-methylazetidin-2-yl]methoxy]pyrazol-3-yl]pyrazolo[1,5-a]pyridin-2-amine] | < 0.847 nM
COc1nnc(Nc2cc3cc(-c4c(OC[C@H]5CCN5C)cnn4C)ccn3n2)cc1C [Example 147, N-(6-methoxy-5-methyl-pyridazin-3-yl)-5-[2-methyl-4-[[(2R)-1-methylazetidin-2-yl]methoxy]pyrazol-3-yl]pyrazolo[1,5-a]pyridin-2-amine] | 0.9 nM
Cc1cn2nc(Nc3cc4cc(-c5c(OC[C@H]6CCN6C)cnn5C)ccn4n3)ccc2n1 [Example 148, 2-methyl-N-[5-[2-methyl-4-[[(2R)-1-methylazetidin-2-yl]methoxy]pyrazol-3-yl]pyrazolo[1,5-a]pyridin-2-yl]imidazo[1,2-b]pyridazin-6-amine] | < 0.847 nM
CN1CC[C@@H]1COc1cnn(C)c1-c1ccn2nc(Nc3ccc4nccn4n3)cc2c1 [Example 149, N-[5-[2-methyl-4-[[(2R)-1-methylazetidin-2-yl]methoxy]pyrazol-3-yl]pyrazolo[1,5-a]pyridin-2-yl]imidazo[1,2-b]pyridazin-6-amine] | 2 nM
